From patent US20230416225A1, “DIAMINOPYRIMIDINE CARBOXAMIDE INHIBITORS OF HPK1” (MERCK SHARP & DOHME LLC, priority 2020, published 2023)

Target: T1, Human HPK1, catalytic domain (Homo sapiens, UniProt Q92918)
T1 construct: purchased Carna
T1 sequence (Q92918 1-346): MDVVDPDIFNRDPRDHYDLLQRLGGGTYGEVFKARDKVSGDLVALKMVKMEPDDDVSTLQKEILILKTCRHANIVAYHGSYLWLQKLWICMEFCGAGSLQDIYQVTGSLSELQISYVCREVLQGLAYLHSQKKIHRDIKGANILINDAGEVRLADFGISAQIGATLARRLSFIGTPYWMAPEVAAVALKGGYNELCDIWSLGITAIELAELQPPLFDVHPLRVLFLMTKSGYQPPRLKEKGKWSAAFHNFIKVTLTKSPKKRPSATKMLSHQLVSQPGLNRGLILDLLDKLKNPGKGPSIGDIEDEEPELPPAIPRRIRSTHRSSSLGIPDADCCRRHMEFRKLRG
Experiment: HPK1-SLP76 TR-FRET assay
Assay type: biochemical
Details: 75 pM HPK1, 10 uM ATP, 10 nM SLP76, 30 min compound pre-incubation

| SMILES | IC50 [nM] |
| --- | --- |
| COc1cc2c(cc1Nc1ncc(C(N)=O)c(Nc3ccccc3C3CCCCC3)n1)CN(C)CC2 [Example 13-1, 4-[(2-cyclohexylphenyl)amino]-2-[(6-methoxy-2-methyl-1,2,3,4-tetrahydroisoquinolin-7-yl)amino]pyrimidine-5-carboxamide] | 5.83 |
| COc1cc2c(cc1Nc1ncc(C(N)=O)c(Nc3ccccc3CC3CCOCC3)n1)CN(C)CC2 [Example 13-2, 2-[(6-methoxy-2-methyl-1,2,3,4-tetrahydroisoquinolin-7-yl)amino]-4-({2-[(oxan-4-yl)methyl]phenyl}amino)pyrimidine-5-carboxamide] | 0.92 |
| COc1cc2c(cc1Nc1ncc(C(N)=O)c(Nc3ccccc3Cc3ccccc3)n1)CN(C)CC2 [Example 13-3, 4-[(2-benzylphenyl)amino]-2-[(6-methoxy-2-methyl-1,2,3,4-tetrahydroisoquinolin-7-yl)amino]pyrimidine-5-carboxamide] | 30.6 |
| COc1cc2c(cc1Nc1ncc(C(N)=O)c(Nc3ccccc3CC3(F)COC3)n1)CN(C)CC2 [Example 13-4, 4-({2-[(3-fluorooxetan-3-yl)methyl]phenyl}amino)-2-[(6-methoxy-2-methyl-1,2,3,4-tetrahydroisoquinolin-7-yl)amino]pyrimidine-5-carboxamide] | 0.66 |
| CC[C@H](C)Cc1ccccc1Nc1nc(Nc2cc3c(cc2OC)CCN(C)C3)ncc1C(N)=O [Example 13-6, 2-[(6-methoxy-2-methyl-1,2,3,4-tetrahydroisoquinolin-7-yl)amino]-4-({2-[(2S)-2-methylbutyl]phenyl}amino)pyrimidine-5-carboxamide] | 597 |
| COc1cc2c(cc1Nc1ncc(C(N)=O)c(Nc3ccccc3CC(C)c3ccccc3)n1)CN(C)CC2 (stereo not shown) [Example 13-7, 2-[(6-methoxy-2-methyl-1,2,3,4-tetrahydroisoquinolin-7-yl)amino]-4-{[2-(2-phenylpropyl)phenyl]amino}pyrimidine-5-carboxamide] | 215 |
| COc1cc2c(cc1Nc1ncc(C(N)=O)c(Nc3ccccc3CC3(C#N)CC3)n1)CN(C)CC2 [Example 13-8, 4-({2-[(1-cyanocyclopropyl)methyl]phenyl}amino)-2-[(6-methoxy-2-methyl-1,2,3,4-tetrahydroisoquinolin-7-yl)amino]pyrimidine-5-carboxamide] | 230 |
| COc1cc2c(cc1Nc1ncc(C(N)=O)c(Nc3ccccc3C[C@H](O)c3ccccc3)n1)CN(C)CC2 [Example 13-9, 4-({2-[(2S)-2-hydroxy-2-phenylethyl]phenyl}amino)-2-[(6-methoxy-2-methyl-1,2,3,4-tetrahydroisoquinolin-7-yl)amino]pyrimidine-5-carboxamide] | 312 |
| COc1cc2c(cc1Nc1ncc(C(N)=O)c(Nc3ccccc3C[C@@H](O)c3ccccc3)n1)CN(C)CC2 [Example 13-10, 4-({2-[(2R)-2-hydroxy-2-phenylethyl]phenyl}amino)-2-[(6-methoxy-2-methyl-1,2,3,4-tetrahydroisoquinolin-7-yl)amino]pyrimidine-5-carboxamide] | 326 |
| COc1cc2c(cc1Nc1ncc(C(N)=O)c(Nc3ccccc3CC3(C#N)CCC3)n1)CN(C)CC2 [Example 13-11, 4-({2-[(1-cyanocyclobutyl)methyl]phenyl}amino)-2-[(6-methoxy-2-methyl-1,2,3,4-tetrahydroisoquinolin-7-yl)amino]pyrimidine-5-carboxamide] | 0.4 |
| COc1cc2c(cc1Nc1ncc(C(N)=O)c(Nc3c(F)cccc3C3CCOCC3)n1)CN(C)CC2 [Example 13-12, 4-{[2-fluoro-6-(oxan-4-yl)phenyl]amino}-2-[(6-methoxy-2-methyl-1,2,3,4-tetrahydroisoquinolin-7-yl)amino]pyrimidine-5-carboxamide] | 0.12 |
| COc1cc2c(cc1Nc1ncc(C(N)=O)c(Nc3ccccc3C3CCOCC3)n1)CN(C)CC2 [Example 13-13, 2-[(6-methoxy-2-methyl-1,2,3,4-tetrahydroisoquinolin-7-yl)amino]-4-{[2-(oxan-4-yl)phenyl]amino}pyrimidine-5-carboxamide] | 1.09 |
| COc1cc2c(cc1Nc1ncc(C(N)=O)c(Nc3ccccc3-c3cncs3)n1)CN(C)CC2 [Example 14-1, 2-[(6-methoxy-2-methyl-1,2,3,4-tetrahydroisoquinolin-7-yl)amino]-4-{[2-(1,3-thiazol-5-yl)phenyl]amino}pyrimidine-5-carboxamide] | 2.75 |
| COc1cc2c(cc1Nc1ncc(C(N)=O)c(Nc3ccccc3-c3nccs3)n1)CN(C)CC2 [Example 14-2, 2-[(6-methoxy-2-methyl-1,2,3,4-tetrahydroisoquinolin-7-yl)amino]-4-{[2-(1,3-thiazol-2-yl)phenyl]amino}pyrimidine-5-carboxamide] | 0.26 |
| COc1cc2c(cc1Nc1ncc(C(N)=O)c(Nc3ccccc3-c3ncco3)n1)CN(C)CC2 [Example 14-3, 2-[(6-methoxy-2-methyl-1,2,3,4-tetrahydroisoquinolin-7-yl)amino]-4-{[2-(1,3-oxazol-2-yl)phenyl]amino}pyrimidine-5-carboxamide] | 0.64 |
| COc1cc2c(cc1Nc1ncc(C(N)=O)c(Nc3cccc4c3CCN(C(C)=O)C4)n1)CN(C)CC2 [Example 15-1, 4-[(2-acetyl-1,2,3,4-tetrahydroisoquinolin-5-yl)amino]-2-[(6-methoxy-2-methyl-1,2,3,4-tetrahydroisoquinolin-7-yl)amino]pyrimidine-5-carboxamide] | 0.48 |

Results, then the compound that gave them:

| IC50 [nM] | SMILES |
| --- | --- |
| 0.09 | COc1cc2c(cc1Nc1ncc(C(N)=O)c(Nc3cccc4c3CCN(C)C4)n1)CN(C)CC2 [Example 16-1, 2-((6-methoxy-2-methyl-1,2,3,4-tetrahydroisoquinolin-7-yl)amino)-4-((2-methyl-1,2,3,4-tetrahydroisoquinolin-5-yl)amino)pyrimidine-5-carboxamide] |
| 23.6 | COc1cc2c(cc1Nc1ncc(C(=O)NN)c(Nc3ccccc3)n1)CN(C)CC2 [Example 18-1, 2-((6-Methoxy-2-methyl-1,2,3,4-tetrahydroisoquinolin-7-yl)amino)-4-(phenylamino)pyrimidine-5-carbohydrazide] |
| 3.01 | COc1cc2c3cc1Nc1ncc(C(N)=O)c(n1)Nc1c(F)cc(cc1F)CCCCCN(CC2)C3 [Example 19-1, 52,56-Difluoro-16-methoxy-11,12,13,14-tetrahydro-2,4-diaza-1(7,2)-isoquinolina-3(2,4)-pyrimidina-5(1,4)-benzenacyclodecaphane-35-carboxamide] |
| 0.21 | COc1cc2c(cc1Nc1ncc(C(N)=O)c(Nc3c(F)cccc3C(F)(F)F)n1)CN(C)CC21CC1 [Example 21-1, 4-((2-fluoro-6-(trifluoromethyl)phenyl)amino)-2-((6′-methoxy-2′-methyl-2′,3′-dihydro-1′H-spiro[cyclopropane-1,4′-isoquinolin]-7′-yl)amino)pyrimidine-5-carboxamide] |
| 468 | CCC1[C@@H](C(=O)Nc2ncc(C(N)=O)c(Nc3ccccc3Br)n2)[C@@H]1c1cnn(C)c1 (stereo partly drawn) [Example 22-2, 4-[(2-bromophenyl)amino]-2-{[(1R,3R)-2-ethyl-3-(1-methyl-1H-pyrazol-4-yl)cyclopropane-1-carbonyl]amino}pyrimidine-5-carboxamide] |
| 5.05 | CC(C)N1CCn2nc(Nc3ncc(C(N)=O)c(Nc4cccc5c4CCNC5)n3)cc2CC1=O [Example 24-1, 2-((6-isopropyl-5-oxo-5,6,7,8-tetrahydro-4H-pyrazolo[1,5-d][1,4]diazepin-2-yl)amino)-4-((1,2,3,4-tetrahydroisoquinolin-5-yl)amino)pyrimidine-5-carboxamide] |
